{
  "source": "the NIST ThermoML archive (doi:10.1016/j.jct.2018.11.004)",
  "key": {"[1]": {"assay": "Molar enthalpy of transition or fusion"}, "[2]": {"conditions": "Crystal 1; for molar entropy: 101.33 kPa, Small (less than 1 g) adiabatic calorimetry; for vapor or sublimation pressure: Closed cell (Static) method"}},
  "note": "Values joined by “and” are separate entries in the source; they are usually repeats but may differ in a detail not shown here. Equal entries are not always repeated. Numbers after ± are expanded uncertainties.",
  "data": [
    {"smiles": "CC(C)[C@@H]1CC[C@@H](C)C[C@H]1O", "note": "[L-menthol]", "values": [
      {"measurement": "Molar enthalpy of transition or fusion", "setting": "[1]; Crystal 1, Adiabatic calorimetry", "value": "3.22 ± 0.0139", "unit": "kcal/mol"},
      {"measurement": "Molar enthalpy of transition or fusion", "setting": "[1]; Crystal 1, DSC", "value": "3.18 ± 0.0956", "unit": "kcal/mol"},
      {"measurement": "Molar enthalpy of transition or fusion", "setting": "[1]; Metastable crystal, DSC", "value": "2.72 ± 0.143", "unit": "kcal/mol"},
      {"measurement": "molar entropy", "setting": "[2]; 5 K", "value": "0.2864 ± 0.03", "unit": "J/K/mol"},
      {"measurement": "molar entropy", "setting": "[2]; 10 K", "value": "2.099 ± 0.083", "unit": "J/K/mol"},
      {"measurement": "molar entropy", "setting": "[2]; 15 K", "value": "5.656 ± 0.18", "unit": "J/K/mol"},
      {"measurement": "molar entropy", "setting": "[2]; 20 K", "value": "10.35 ± 0.3", "unit": "J/K/mol"},
      {"measurement": "molar entropy", "setting": "[2]; 25 K", "value": "15.64 ± 0.39", "unit": "J/K/mol"},
      {"measurement": "molar entropy", "setting": "[2]; 30 K", "value": "21.2 ± 0.47", "unit": "J/K/mol"},
      {"measurement": "molar entropy", "setting": "[2]; 35 K", "value": "26.81 ± 0.54", "unit": "J/K/mol"},
      {"measurement": "molar entropy", "setting": "[2]; 40 K", "value": "32.36 ± 0.59", "unit": "J/K/mol"},
      {"measurement": "molar entropy", "setting": "[2]; 45 K", "value": "37.82 ± 0.63", "unit": "J/K/mol"},
      {"measurement": "molar entropy", "setting": "[2]; 50 K", "value": "43.18 ± 0.69", "unit": "J/K/mol"},
      {"measurement": "molar entropy", "setting": "[2]; 55 K", "value": "48.45 ± 0.73", "unit": "J/K/mol"},
      {"measurement": "molar entropy", "setting": "[2]; 60 K", "value": "53.64 ± 0.77", "unit": "J/K/mol"},
      {"measurement": "molar entropy", "setting": "[2]; 65 K", "value": "58.76 ± 0.81", "unit": "J/K/mol"},
      {"measurement": "molar entropy", "setting": "[2]; 70 K", "value": "63.82 ± 0.85", "unit": "J/K/mol"},
      {"measurement": "molar entropy", "setting": "[2]; 75 K", "value": "68.83 ± 0.89", "unit": "J/K/mol"},
      {"measurement": "molar entropy", "setting": "[2]; 80 K", "value": "73.79 ± 0.93", "unit": "J/K/mol"},
      {"measurement": "molar entropy", "setting": "[2]; 85 K", "value": "78.72 ± 0.96", "unit": "J/K/mol"},
      {"measurement": "molar entropy", "setting": "[2]; 90 K", "value": "83.6 ± 1", "unit": "J/K/mol"},
      {"measurement": "molar entropy", "setting": "[2]; 95 K", "value": "88.45 ± 1.1", "unit": "J/K/mol"},
      {"measurement": "molar entropy", "setting": "[2]; 100 K", "value": "93.27 ± 1.1", "unit": "J/K/mol"},
      {"measurement": "molar entropy", "setting": "[2]; 105 K", "value": "98.05 ± 1.1", "unit": "J/K/mol"},
      {"measurement": "molar entropy", "setting": "[2]; 110 K", "value": "102.8 ± 1.1", "unit": "J/K/mol"},
      {"measurement": "molar entropy", "setting": "[2]; 115 K", "value": "107.5 ± 1.2", "unit": "J/K/mol"},
      {"measurement": "molar entropy", "setting": "[2]; 120 K", "value": "112.2 ± 1.3", "unit": "J/K/mol"},
      {"measurement": "molar entropy", "setting": "[2]; 125 K", "value": "116.8 ± 1.3", "unit": "J/K/mol"},
      {"measurement": "molar entropy", "setting": "[2]; 130 K", "value": "121.4 ± 1.3", "unit": "J/K/mol"},
      {"measurement": "molar entropy", "setting": "[2]; 135 K", "value": "126 ± 1.3", "unit": "J/K/mol"},
      {"measurement": "molar entropy", "setting": "[2]; 140 K", "value": "130.6 ± 1.3", "unit": "J/K/mol"},
      {"measurement": "molar entropy", "setting": "[2]; 145 K", "value": "135.1 ± 1.4", "unit": "J/K/mol"},
      {"measurement": "molar entropy", "setting": "[2]; 150 K", "value": "139.5 ± 1.4", "unit": "J/K/mol"},
      {"measurement": "molar entropy", "setting": "[2]; 155 K", "value": "144 ± 1.5", "unit": "J/K/mol"},
      {"measurement": "molar entropy", "setting": "[2]; 160 K", "value": "148.4 ± 1.5", "unit": "J/K/mol"},
      {"measurement": "molar entropy", "setting": "[2]; 165 K", "value": "152.8 ± 1.5", "unit": "J/K/mol"},
      {"measurement": "molar entropy", "setting": "[2]; 170 K", "value": "157.2 ± 1.6", "unit": "J/K/mol"},
      {"measurement": "molar entropy", "setting": "[2]; 175 K", "value": "161.5 ± 1.6", "unit": "J/K/mol"},
      {"measurement": "molar entropy", "setting": "[2]; 180 K", "value": "165.8 ± 1.6", "unit": "J/K/mol"},
      {"measurement": "molar entropy", "setting": "[2]; 185 K", "value": "170.1 ± 1.6", "unit": "J/K/mol"},
      {"measurement": "molar entropy", "setting": "[2]; 190 K", "value": "174.4 ± 1.7", "unit": "J/K/mol"},
      {"measurement": "molar entropy", "setting": "[2]; 195 K", "value": "178.7 ± 1.7", "unit": "J/K/mol"},
      {"measurement": "molar entropy", "setting": "[2]; 200 K", "value": "182.9 ± 1.8", "unit": "J/K/mol"},
      {"measurement": "molar entropy", "setting": "[2]; 205 K", "value": "187.1 ± 1.8", "unit": "J/K/mol"},
      {"measurement": "molar entropy", "setting": "[2]; 210 K", "value": "191.4 ± 1.8", "unit": "J/K/mol"},
      {"measurement": "molar entropy", "setting": "[2]; 215 K", "value": "195.5 ± 1.8", "unit": "J/K/mol"},
      {"measurement": "molar entropy", "setting": "[2]; 220 K", "value": "199.7 ± 1.8", "unit": "J/K/mol"},
      {"measurement": "molar entropy", "setting": "[2]; 225 K", "value": "203.9 ± 1.8", "unit": "J/K/mol"},
      {"measurement": "molar entropy", "setting": "[2]; 230 K", "value": "208.1 ± 2", "unit": "J/K/mol"},
      {"measurement": "molar entropy", "setting": "[2]; 235 K", "value": "212.2 ± 2", "unit": "J/K/mol"},
      {"measurement": "molar entropy", "setting": "[2]; 240 K", "value": "216.3 ± 2", "unit": "J/K/mol"},
      {"measurement": "molar entropy", "setting": "[2]; 245 K", "value": "220.5 ± 2", "unit": "J/K/mol"},
      {"measurement": "molar entropy", "setting": "[2]; 250 K", "value": "224.6 ± 2", "unit": "J/K/mol"},
      {"measurement": "molar entropy", "setting": "[2]; 255 K", "value": "228.7 ± 2", "unit": "J/K/mol"},
      {"measurement": "molar entropy", "setting": "[2]; 260 K", "value": "232.9 ± 2.2", "unit": "J/K/mol"},
      {"measurement": "molar entropy", "setting": "[2]; 265 K", "value": "237 ± 2.2", "unit": "J/K/mol"},
      {"measurement": "molar entropy", "setting": "[2]; 270 K", "value": "241.2 ± 2.2", "unit": "J/K/mol"},
      {"measurement": "vapor or sublimation pressure", "setting": "[2]; 273.64 K", "value": "0.000244 ± 0.00014", "unit": "kPa"},
      {"measurement": "vapor or sublimation pressure", "setting": "[2]; 273.65 K", "value": "0.000244 ± 0.00014 kPa and 0.000242 ± 0.00014 kPa"},
      {"measurement": "molar entropy", "setting": "[2]; 275 K", "value": "245.3 ± 2.2", "unit": "J/K/mol"},
      {"measurement": "vapor or sublimation pressure", "setting": "[2]; 277.38 K", "value": "0.000399 ± 0.00014", "unit": "kPa"},
      {"measurement": "vapor or sublimation pressure", "setting": "[2]; 277.41 K", "value": "0.000401 ± 0.00014", "unit": "kPa"},
      {"measurement": "vapor or sublimation pressure", "setting": "[2]; 277.5 K", "value": "0.000403 ± 0.00014", "unit": "kPa"},
      {"measurement": "vapor or sublimation pressure", "setting": "[2]; 278.15 K", "value": "0.000441 ± 0.00014 kPa and 0.00044 ± 0.00014 kPa"},
      {"measurement": "vapor or sublimation pressure", "setting": "[2]; 278.16 K", "value": "0.00044 ± 0.00014", "unit": "kPa"},
      {"measurement": "molar entropy", "setting": "[2]; 280 K", "value": "249.5 ± 2.2", "unit": "J/K/mol"},
      {"measurement": "vapor or sublimation pressure", "setting": "[2]; 282.34 K", "value": "0.000758 ± 0.00014 kPa and 0.000756 ± 0.00014 kPa and 0.000759 ± 0.00014 kPa"},
      {"measurement": "vapor or sublimation pressure", "setting": "[2]; 283.15 K", "value": "0.000839 ± 0.00014 kPa and 0.00084 ± 0.00014 kPa"}
    ]}
  ]
}
